Assay results taken from patent US20050281890A1 (priority 2004, published 2005).
Read-outs that look alike come from different tables or passages of the source.

Assays:
keratin 14 = conditions: p47phox knockout mice; 1.25 micromoles/wound, days 0-4; day 18 post-wounding, after closure
Experimental: Two excisional wounds (FIG. 2) were-laced on the dorsal skin of 8 wk old C57BL/6, MCP-1 or p47phox KO mice. Each of the two wounds was treated with either saline or H2O2 (1.25 micromoles/wound; days 0-4). […] C. […] D. Keratin 14 (green fluorescence) expression in skin of p47phox KO mice harvested from wound sites after closure on day 18 post-wounding.
Briefly, two excisional wounds were placed on the dorsal skin of eight-week-old C57BL/6, MCP-1 or p47^phox knockout mice. Each of the two wounds was treated with either saline or H2O2 (1.25 micromoles/wound; days 0-4).

[1] = tested on: 8×16-mm full-thickness excisional wounds; conditions: for wound closure: p<0.05
Experimental: FIG. 3. […] Two 8×16 mm full-thickness excisional wounds (inset) were placed on the dorsal skin of C57BL/6 male mice (8 wk old). […] For determination of surface microflora, wounds (treated with either 1.25 micromole H2O2/wound, open bar, or saline, closed bar) were swabbed (24-48 h post wounding) for 20 sec with an alginate-tipped applicator. Quantitative assessment of surface bacterial load was performed. For deep tissue wound microflora, 48 h after wounding eschar tissue was removed, wound bed tissue underneath eschar was sampled and quantitative assessment of bacterial load was performed. Values shown represent mean±SD of CFU of four observations. C.
Briefly, two 8×16-mm full-thickness excisional wounds (FIG. 3, insets) were placed on the dorsal skin of C57BL/6 male mice (8 weeks old). Each of the two wounds was topically treated either with H2O2 or saline.

[2] = tested on: focal adhesion kinase (FAK); conditions: wound-edge tissue, 1.25 micromole/wound, 30 minutes after wounding
Experimental: Human microvascular endothelial cells (HMEC-1) were treated with H2O2 for indicated dose and duration. Phosphorylation of FAK was detected using Western blot and phosphorylation site-specific antibodies against FAK. Native FAK or β-actin was blotted to show equal loading. […] B. Kinetics of site-specific activation phophorylation of FAK in HMEC cells following H2O2 (0.1 mM) treatment. […] Paired excisional wounds (FIG. 2) were either treated with placebo saline or H2O2 (1.25 micromole/wound). Wound-edge tissue was collected 30 min after wounding. FAK phosphorylation in wound edge tissue was determined using Western blot. Data from three animals (#1-#3) are shown.
In FIG. 5C, paired excisional wounds were either treated with placebo saline or H2O2 (1.25 micromole/wound). Wound-edge tissue was collected 30 minutes after wounding. FAK phosphorylation in wound edge tissue was determined using Western blot. Data from three animals (#1-#3) are shown.

[3] = tested on: focal adhesion kinase (FAK); conditions: HMEC-1 microvascular endothelial cells; various doses, 0.1 mM for kinetics
Experimental: Human microvascular endothelial cells (HMEC-1) were treated with H2O2 for indicated dose and duration. Phosphorylation of FAK was detected using Western blot and phosphorylation site-specific antibodies against FAK. Native FAK or β-actin was blotted to show equal loading. A. Effect of various dose of H2O2 treatment on phosphorylation (Ty 925) state of FAK. B. Kinetics of site-specific activation phophorylation of FAK in HMEC cells following H2O2 (0.1 mM) treatment.
Human microvascular endothelial cells (HMEC-1) were treated with H2O2 for indicated dose and duration. Phosphorylation of FAK was detected using Western blot and phosphorylation site-specific antibodies against FAK. Native FAK or β-actin was blotted to show equal loading.

wound blood flow = conditions: 1.25 micromole/wound, days 0-4, once daily; post-heal tissue; vs placebo saline
Experimental: (§1) FIG. 4. […] Paired excisional wounds (FIG. 2) were either treated with placebo saline or H2O2 (1.25 micromole/wound, days0-4, once daily). Wound-edge tissue was collected at indicated times after wounding. A. Ribonuclease protection assay (RPA) showing kinetics of angiogenesis-related mRNA expression in a placebo-treated wound. […] C. Blood flow imaging of wounds was performed non-invasively using a Laser Doppler blood flow imaging device. Images reflecting the blood flow (right panel) and a digital photo (region of interest; left panel) from post-heal tissue are shown. Data i.e., mean±SD of the blood flow is presented (bar graph). The mean represents the arithmetic mean of all valid blood flow values for pixels within the region of interest.
(§2) Paired excisional wounds were either treated with placebo saline or H2O2 (1.25 micromole/wound, days 0-4, once daily). Wound-edge tissue was collected at indicated times after wounding.
Images reflecting the blood flow (right panel) and a digital photo (region of interest; left panel) from post-heal tissue are shown. […] The mean represents the arithmetic mean of all valid blood flow values for pixels within the region of interest.

VEGF mRNA = conditions: 1.25 micromole/wound, once daily, days 0-4; wound-edge tissue
Experimental: as §1, §2

CD31 = conditions: 1.25 micromole/wound, days 0-4; day 8 post-wounding; vs control
Experimental: as §1, §2

Flt-1 mRNA = conditions: 1.25 micromole/wound, once daily, days 0-4; wound-edge tissue
Experimental: as §1, §2

## OO [H2O2, hydrogen peroxide]
Keratin 14
  keratin 14 expression: comparable to normal skin
[1]; 62.5 micromoles/wound (0.025 ml of 7.5% solution), once on day 0
  tissue damage / survival: caused necrotic tissue damage and severe injury, leading to death of the mice
[1]; high dose 25 micromoles/wound (0.025 ml of 3% solution), once daily days 0-4, compared to low dose 1.25 micromoles/wound
  wound closure: adversely affected closure
[1]; low-dose 1.25 micromoles/wound (0.025 ml of 0.15% solution), topical, once daily, days 0-4, vs placebo saline side
  wound closure: facilitated closure moderately
[2]
  phosphorylation of FAK: Induced Phosphorylation
[3]
  phosphorylation of FAK: Induced Phosphorylation
Wound blood flow
  blood flow: increased blood flow
VEGF mRNA
  wound-induced VEGF mRNA expression: further augmented
CD31
  vascularization (CD31 stain): better vascularization
Flt-1 mRNA
  wound-induced Flt-1 mRNA expression: further augmented
